Measured values taken from patent US4180669A, “2-(N-phenethyl-4-piperidino)-5-pentyl resorcinol” (Abbott Laboratories, priority 1978, dated 1979).
Structures can show the parent of a compound that is named as a salt. Where two headings read alike, the source gives them in different places.

Key:
[1] = tested on: pylorous ligated rats; assay: Antisecretory activity in the pylorous ligated rat model; assay type: in vivo, male Sprague-Dawley rats; conditions: for inhibition in vivo at 12.5 mg/kg / inhibition in vivo at 25 mg/kg / inhibition in vivo at 50 mg/kg / inhibition in vivo at 100 mg/kg: Rattus norvegicus, 4 h
Method: To determine the antisecretory activity of the present compounds, the compounds were tested for such activity in pylorous ligated rats. In this test, male Sprague-Dawley rats weighing 170-190 g. were fasted for 24 hours. Water was allowed ad libitum. All groups were comprised of six rats. […] Water was withheld after drug administration. Ligation of the pyrloric sphincter was performed under ether anesthesia, and four hours after ligation the animals were sacrificed with CO2. The stomach was dissected out and the contents were expelled into a graduated centrifuge tube. The samples were centrifuged and the volume, less debris, was measured. Sample aliquots were titrated with 0.05 N NaOH to determine acid concentration. Pepsin activity was determined on an auto analyzer using hemoglobin as the substrate by the method of Anson. Group means for volume, acid and pepsin concentrations, and pepsin outputs were compared for statistically significant differences from control means by Student's t-test.

[2] = tested on: pentagastrin stimulated fistula dog; assay: Antisecretory activity in the pentagastrin stimulated fistula dog; assay type: in vivo, female beagle dogs; conditions: pentagastrin 10 μg/kg s.c., 2 hours
Method: In addition to the test described in Example XXXVI, some of the present compounds were tested in dogs.
In this test, female beagle dogs weighing 5.5-7.5 kg. were surgically provided with gastric fistulas at the ventral wall of the stomach near the greater curvature and just proximal to the antrum. The animals were allowed to recover for three to four weeks before handling and training were begun, and experiments were started six to eight weeks after surgery. The individually housed dogs were fasted for 20-24 hours before use. Water was allowed ad lib. Treatment selection was determined by a randomized schedule which included control groups given vehicle (0.5% Methocel® solution) only. During the test period each dog was secured in a standing position with one collar around the neck and another around the lower abdomen. Before drug administration, the cannula plug of the gastric fistula was removed and the pH of the gastric juice was checked. Animals with acidic gastric juice (pH 4.0 or less) were replaced with alternate dogs. Then the drug was administered intragastrically […] through a special gastric cannula instillation plug, 30 minutes prior to subcutaneous administration of a gastric stimulant (pentagastrin, 10 μg/kg).
For each dog, collection of gastric juice was begun immediately after administration of the gastric stimulant and continued for two hours. The volumes of collected gastric juices were measured. The acid concentration and pepsin activity were determined for all samples by automated procedures. For the dog data, as recorded in Table 2, below, group means for volume (ml), acid concentration (acidity, mEq/l), pepsin concentration (mg/ml), acid output (mEq/2 hr), and pepsin output (mg/2 hr) were compared with the respective control means using Student's t-test. The results were also expressed as percent inhibition of the respective individual mean control values.
Group means for volume, acid and pepsin concentrations, acid and pepsin outputs were compared for statistically significant differences from control means by Student's t-test.

[3] = oral dose 50 mg/kg, negative sign means stimulated
[4] = oral dose 12.5 mg/kg, read-out: Percent inhibition of acid output
[5] = oral dose 12.5 mg/kg, read-out: Percent inhibition of acidity
[6] = oral dose 12.5 mg/kg, read-out: Percent inhibition of volume
[7] = oral dose 25 mg/kg, read-out: Percent inhibition of acid output
[8] = oral dose 25 mg/kg, read-out: Percent inhibition of acidity
[9] = oral dose 25 mg/kg, read-out: Percent inhibition of volume
[10] = oral dose 50 mg/kg, read-out: Percent inhibition of acid output
[11] = oral dose 50 mg/kg, read-out: Percent inhibition of acidity
[12] = oral dose 50 mg/kg, read-out: Percent inhibition of volume
[13] = oral dose 100 mg/kg, read-out: Percent inhibition of acid output
[14] = oral dose 100 mg/kg, read-out: Percent inhibition of acidity
[15] = oral dose 100 mg/kg, read-out: Percent inhibition of volume
[16] = oral dose 50 mg/kg, negative sign means stimulated, read-out: Percent inhibition of pepsin
[17] = oral dose 50 mg/kg, negative sign means stimulated, read-out: Percent inhibition of pepsin output

## 2-(1,2,3,4-Tetrahydro-4-pyridyl)-3-methoxy-5-(1,2-dimethylheptyl)phenol hydrochloride [XXVIII]
[1]; oral dose 12.5 mg/kg
  Percent inhibition of acid output: 7.5%
  Percent inhibition of acidity: 19.2%
  Percent inhibition of pepsin output: 10.9%
  Percent inhibition of volume: -14.5%
[1]; oral dose 12.5 mg/kg, negative sign means stimulated
  Percent inhibition of pepsin: 22.5%
[1]; oral dose 25 mg/kg
  Percent inhibition of acid output: 13.1%
  Percent inhibition of acidity: 27.2%
  Percent inhibition of pepsin output: 0.8%
  Percent inhibition of volume: -19.5%
[1]; oral dose 25 mg/kg, negative sign means stimulated
  Percent inhibition of pepsin: 17.2%
[1]; oral dose 50 mg/kg
  Percent inhibition of acid output: 68.2%
  Percent inhibition of acidity: 67.1%
  Percent inhibition of volume: 3.7%
[1]; [3]
  Percent inhibition of pepsin: 7.5%
  Percent inhibition of pepsin output: 9.1%
[1]; oral dose 100 mg/kg
  Percent inhibition of acid output: 64.4%
  Percent inhibition of acidity: 71.7%
  Percent inhibition of pepsin output: 1.8%
  Percent inhibition of volume: -23.1%
[1]; oral dose 100 mg/kg, negative sign means stimulated
  Percent inhibition of pepsin: 20.9%
[2]; dose 10 mg/kg
  % Inhibition of acid output: 16.5%
  % Inhibition of acidity: 7.7%
  % Inhibition of pepsin: 29.7%
  % Inhibition of pepsin output: 35.1%
  % Inhibition of volume: 9.2%
[2]; dose 20 mg/kg
  % Inhibition of acid output: 17.9%
  % Inhibition of acidity: 26.2%
  % Inhibition of pepsin: 48.0%
  % Inhibition of pepsin output: 41.2%
  % Inhibition of volume: -12.6%

## CCCCCC(C)C(C)c1cc(O)c(C2=CCN(CCc3ccccc3)CC2)c(O)c1 (centres unmarked) [Example XX, 2-(N-Phenethyl-1,2,3,6-tetrahydro-4-pyridyl)-5-(1,2-dimethylheptyl) resorcinol hydrochloride]
[1]; [4]
  inhibition in vivo at 12.5 mg/kg: 9.7%
[1]; [5]
  inhibition in vivo at 12.5 mg/kg: 8.5%
[1]; [6]
  inhibition in vivo at 12.5 mg/kg: 2.6%
[1]; [7]
  inhibition in vivo at 25 mg/kg: 17.1%
[1]; [8]
  inhibition in vivo at 25 mg/kg: 1.7%
[1]; [9]
  inhibition in vivo at 25 mg/kg: 16.9%
[1]; [10]
  inhibition in vivo at 50 mg/kg: 47.8%
[1]; [11]
  inhibition in vivo at 50 mg/kg: 10.7%
[1]; [12]
  inhibition in vivo at 50 mg/kg: 42.8%
[1]; [13]
  inhibition in vivo at 100 mg/kg: 51.2%
[1]; [14]
  inhibition in vivo at 100 mg/kg: 19.5%
[1]; [15]
  inhibition in vivo at 100 mg/kg: 44.8%

## CCCCCc1cc(O)c(C2CCN(CCc3ccccc3)CC2)c(O)c1 [Example XXI, 2-(N-Phenethyl-4-piperidino)-5-pentyl resorcinol hydrochloride]
[1]; oral dose 12.5 mg/kg, negative sign means stimulated, read-out: Percent inhibition of pepsin
  inhibition in vivo at 12.5 mg/kg: 11.4%
[1]; [4]
  inhibition in vivo at 12.5 mg/kg: 0.5%
[1]; [5]
  inhibition in vivo at 12.5 mg/kg: -4%
[1]; oral dose 12.5 mg/kg, read-out: Percent inhibition of pepsin output
  inhibition in vivo at 12.5 mg/kg: 19.9%
[1]; [6]
  inhibition in vivo at 12.5 mg/kg: 6.5%
[1]; oral dose 25 mg/kg, negative sign means stimulated, read-out: Percent inhibition of pepsin
  inhibition in vivo at 25 mg/kg: 11.4%
[1]; [7]
  inhibition in vivo at 25 mg/kg: 32.7%
[1]; [8]
  inhibition in vivo at 25 mg/kg: 5.8%
[1]; oral dose 25 mg/kg, read-out: Percent inhibition of pepsin output
  inhibition in vivo at 25 mg/kg: 41.4%
[1]; [9]
  inhibition in vivo at 25 mg/kg: 31.2%
[1]; [16]
  inhibition in vivo at 50 mg/kg: -6.2%
[1]; [17]
  inhibition in vivo at 50 mg/kg: 56.4%
[1]; [10]
  inhibition in vivo at 50 mg/kg: 64.1%
[1]; [11]
  inhibition in vivo at 50 mg/kg: 15%
[1]; [12]
  inhibition in vivo at 50 mg/kg: 58.2%
[1]; oral dose 100 mg/kg, negative sign means stimulated, read-out: Percent inhibition of pepsin
  inhibition in vivo at 100 mg/kg: -12.7%
[1]; [13]
  inhibition in vivo at 100 mg/kg: 66.6%
[1]; [14]
  inhibition in vivo at 100 mg/kg: 16.1%
[1]; oral dose 100 mg/kg, read-out: Percent inhibition of pepsin output
  inhibition in vivo at 100 mg/kg: 60.6%
[1]; [15]
  inhibition in vivo at 100 mg/kg: 61.8%

## CCCCCC(C)C(C)c1cc(O)c(C2CCN(CCc3ccccc3)CC2)c(O)c1 (centres unmarked) [Example XXII, 2-(N-phenethyl-4-piperidino)-5-(1,2-dimethylheptyl) resorcinol hydrochloride]
[1]; [16]
  inhibition in vivo at 50 mg/kg: -7.1%
[1]; [17]
  inhibition in vivo at 50 mg/kg: 30.9%
[1]; [10]
  inhibition in vivo at 50 mg/kg: 37.6%
[1]; [11]
  inhibition in vivo at 50 mg/kg: 8.5%
[1]; [12]
  inhibition in vivo at 50 mg/kg: 37.3%

## CCCCCC(C)C(C)c1cc(O)c(C2=CC3CCC(C2)N3C)c(O)c1 (centres unmarked) [Example XXV, 2-(N-Methyl-2,6-ethylidene-1,2,3,6-tetrahydro-4-pyridyl)-5-(1,2-dimethylheptyl) resorcinol hydrochloride]
[1]; [16]
  inhibition in vivo at 50 mg/kg: 1%
[1]; [17]
  inhibition in vivo at 50 mg/kg: 11%
[1]; [10]
  inhibition in vivo at 50 mg/kg: 29.4%
[1]; [11]
  inhibition in vivo at 50 mg/kg: 21.2%
[1]; [12]
  inhibition in vivo at 50 mg/kg: 9.7%

## CCCCCC(C)C(C)c1cc(O)c(C2=CCN(C)CC2)c(OC)c1 (centres unmarked) [Example XXVI, 2-(N-Methyl-1,2,3,6-tetrahydro-4-pyridyl)-3-methoxy-5-(1,2-dimethylheptyl)phenol hydrochloride]
[1]; [16]
  inhibition in vivo at 50 mg/kg: 12.6%
[1]; [17]
  inhibition in vivo at 50 mg/kg: 8.6%
[1]; [10]
  inhibition in vivo at 50 mg/kg: 53.7%
[1]; [11]
  inhibition in vivo at 50 mg/kg: 53.1%
[1]; [12]
  inhibition in vivo at 50 mg/kg: -0.3%
